Measured values reported in paper PMC11997999, “Uncovering α-Selectivity for Liver X Receptor Agonists for Lipotoxic Cancer Therapies” (Journal of Medicinal Chemistry, 2025).

How the values were obtained:
LXRα = molecular target: T1, LXRα (Homo sapiens, UniProt Q13133); test: LXRα-specific LXRE-GFP reporter assay in Hep3B cells (NR1H2 knockout); type: cell-based; settings: 48h of treatment, GFP by FACS
T1 construct: To measure the activity of the remaining isoform under treatment; endogenous in cells; host or cells: Hep3B (NR1H2 knockout, LXRE-GFP reporter)
T1 sequence (Q13133 1-447): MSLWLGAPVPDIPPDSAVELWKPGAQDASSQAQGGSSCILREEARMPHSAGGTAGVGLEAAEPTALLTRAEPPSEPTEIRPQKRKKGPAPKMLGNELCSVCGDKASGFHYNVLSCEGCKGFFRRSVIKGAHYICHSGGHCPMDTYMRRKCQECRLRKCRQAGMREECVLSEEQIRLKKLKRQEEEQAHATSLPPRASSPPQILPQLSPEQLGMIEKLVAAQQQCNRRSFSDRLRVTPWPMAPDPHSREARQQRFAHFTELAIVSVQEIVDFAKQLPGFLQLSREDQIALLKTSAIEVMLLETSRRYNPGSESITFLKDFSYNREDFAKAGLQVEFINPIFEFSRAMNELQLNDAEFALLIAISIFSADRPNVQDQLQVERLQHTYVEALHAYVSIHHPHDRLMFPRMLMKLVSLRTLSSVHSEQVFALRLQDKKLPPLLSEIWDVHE

LXRα LBD (GST) = molecular target: T2, LXRα LBD (GST) (Homo sapiens, UniProt Q13133); test: Time-resolved LXR FRET assay (LanthaScreen TR-FRET LXRα Coactivator Assay Kit); type: biochemical; settings: 5 nM LXRα LBD (GST), read after 6 h; R^2 of fit given; read-out: TR-FRET activity (EC50) LXRα
T2 construct: 5 nM LXRα LBD (GST); 10 nM LXRβ LBD (GST); purchased ThermoFisher Scientific PV4655
T2 sequence (Q13133 209-447 limits assumed): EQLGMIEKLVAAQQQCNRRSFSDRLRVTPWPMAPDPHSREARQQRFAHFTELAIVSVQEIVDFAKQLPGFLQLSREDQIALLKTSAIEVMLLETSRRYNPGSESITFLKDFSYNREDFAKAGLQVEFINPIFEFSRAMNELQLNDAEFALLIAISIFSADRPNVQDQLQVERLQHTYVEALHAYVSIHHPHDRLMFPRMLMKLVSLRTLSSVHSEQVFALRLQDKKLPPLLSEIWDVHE
Description: The biochemical TR-FRET assays were performed using the LanthaScreen TR-FRET LXRα Coactivator Assay Kit, goat (ThermoFisher Scientific, PV4655), and the LanthaScreen TR-FRET LXRβ assay kit, goat (ThermoFisher Scientific, PV4658), according to the manufacturer’s instructions using the following concentrations: 5 nM LXRα LBD (GST); 10 nM LXRβ LBD (GST); 500 nM fluorescein-TRAP220/DRIP-2; 200 nM fluorescein-D22; 10 nM Tb anti-GST antibody. The TR-FRET signals were measured after 6 h using a TECAN SPARK multimode microplate reader with the following settings: first excitation wavelength: 360 nm (bandwidth 35 nm), first emission wavelength: 485 nm (bandwidth 20 nm); second excitation wavelength: 360 nm (bandwidth 35 nm), second emission wavelength: 535 nm (bandwidth 25 nm); integration time: 200 μs; lag time: 100 μs; settle time: 0 ms.

Hep3B cells = test: Cell viability analysis in Hep3B cells (CellTiter-Glo); type: cell-based, human; settings: 5d
Description: To determine the therapeutic efficacy of compound 40 in HCC cells, we next tested its effect on Hep3B cell viability in combination with the DFG-out Raf inhibitor sorafenib (2 μM).
For organoid treatment studies, digestion of organoids was performed using TrypLE Express (Gibco) supplemented with 100 μg/mL DNaseI and 10.5 μM Y-27632 dihydrochloride (Invitrogen) at 37 °C, and afterward, single-cells were plated in white 96 well plates (Sarstedt) in a mixture of 10% Matrigel (Growth Factor Reduced (GFR) Matrigel, Corning) in culture medium. Cell viability was determined after 5 days of treatment using the CellTiter-Glo 3D Cell Viability Assay Kit (Promega). Cell viability of Hep3B, AML12, and BNL CL.2 cells was determined after 5 days of treatment in white 96 well plates (Sarstedt) using the CellTiter-Glo 2.0 Cell Viability Assay Kit (Promega). AML12 and BNL CL.2 cells were also obtained from the American Type Culture Collection. The luminescence signal was measured using an […] M PLEX plate reader (Tecan) and the Tecan i-control software (v3.9.1). Sodium oleate (Selleckchem) was dissolved in methanol and added to cells at a final concentration of 200 μM.

[1] = test system: Akt1^Myr; Myc^OE HCC organoids; test: Cell viability analysis in HCC organoids (CellTiter-Glo 3D); type: cell-based, murine; settings: 5d, with 4 μM sorafenib
Excerpt: Finally, we analyzed the efficacy of compound 40 in preclinical treatment studies in three-dimensional liver cancer organoid cultures. HCC organoids driven by myristoylated Akt1 and overexpressed Myc (Akt1^Myr; Myc^OE) were isolated from murine liver tumors and subjected to monotherapies of sorafenib, compound 40, or a combination thereof (Figure 7C). The therapeutic outcome was side-by-side compared with combinatorial therapies comprising the established agonists T0901317 (1) and GW3965 (2). […] Isolation of murine HCC organoid cultures was performed from liver tumors derived from C57BL/6 mice using established protocols.[26] The animal experiments were approved by committees of the regional authority of the state of Baden-Wuerttemberg (Regierungspraesidium Tuebingen, authorization number M15/18G) as appropriate. After digestion, the organoids were embedded in 100% Growth Factor Reduced (GFR) MatrigelTM (Corning) and cultured at 37 °C and 5% CO2 in HCC organoid medium supplemented with nicotinamide (10 mM), N-acetylcystein (1.25 mM), human HGF (50 ng/mL), human FGF-10 (100 ng/mL), human R-Spondin (0.5 μg/mL), forskolin (10 μM), A83- 01 (0.5 μM), murine Noggin (50 ng/mL), gastrin I (10 nM), human BMP-7 (25 ng/mL), human Wnt3a (100 ng/mL), B27 supplement (1×) and N2 supplement (1×). The cultures were split by mechanical dissociation every 3 to 4 days. […] Cell viability was determined after 5 days of treatment using the CellTiter-Glo 3D Cell Viability Assay Kit (Promega). Cell viability of Hep3B, AML12, and BNL CL.2 cells was determined after 5 days of treatment in white 96 well plates (Sarstedt) using the CellTiter-Glo 2.0 Cell Viability Assay Kit (Promega). […] The luminescence signal was measured using an […] M PLEX plate reader (Tecan) and the Tecan i-control software (v3.9.1). […]

EC50 (LXRα): 27 nM | EC50 (LXRα LBD (GST)): 42 nM
Structure (SMILES): O=C1C(Nc2ccc(N3CCCCC3)cc2)=C(c2ccccc2)C(=O)N1Cc1ccccc1 [Compound 40, 1-Benzyl-3-phenyl-4-((4-(piperidin-1-yl)phenyl)amino)-1H-pyrrole-2,5-dione]
effect of sodium oleate on efficacy of the combination with sorafenib (Hep3B cells; 2 μM sorafenib ± 200 μM sodium oleate): strongly diminished the therapeutic efficacy | therapeutic effect on cell viability, monotherapy (Hep3B cells; without sorafenib): did not show a significant therapeutic effect | therapeutic efficacy (cell viability) in combination with sorafenib [1]: further improved therapeutic efficacy
